Measurements from patent publication US20250064057A1, “HARMFUL ALGAL BLOOM MITIGATION” (priority 2023, published 2025).

How the values were obtained:
[1] = system: Karenia brevis; experiment: K. brevis cell abundance reduction (% R relative to control) in laboratory beakers/aquaria; format: cell-based; details: for mean % R in K. brevis cell abundance: beginning at 4 h
[2] = system: K. brevis; details: other studies; cited from earlier work

Row | Structure (SMILES) | mean % R in K. brevis cell abundance ([1]; 30 mg/L curcumin) [%] | mean % R in K. brevis cell abundance ([1]; 40 mg/L curcumin) [%] | reduction in K. brevis (best mitigation results) ([1]; 20-40 mg/L curcumin, T2-T6) | minimum concentration of curcumin for a reduction in K. brevis ([1]; laboratory studies) [mg/L] | effect on K. brevis cells [2]
1 | COc1cc(/C=C/C(=O)CC(=O)/C=C/c2ccc(O)c(OC)c2)ccc1O [curcumin, (1E,6E)-1,7-Bis (4 (hydroxy-3-methoxyphenyl)-1,6-heptadiene-3,5-dione)] | > 90 | > 90 | 60-100% | 5 | –
2 | CCCCOC(=O)c1ccccc1C(=O)OCCCC [dibutyl phthalate] | – | – | – | – | inhibit cell growth, decrease cell abundance, reduce chlorophyll a, and cause oxidative stress
